Tested on: ERK
Assay: ERK activation in neonatal rat ventricular myocytes (pERK/ERK Western blot)
Assay type: cell-based
Details: NRVMs, norepinephrine 1 μM in the presence of propranolol 1 μM
Text: FIGS. 4A-4F. […] The reaction was stopped immediately and lysates were blotted for total and phospho-ERK (pERK). FIG. 4A. Representative Western blot. FIG. 4B. […] FIG. 4C. Summary of pERK/ERK for experiments using 5 different NRVM isolations. The average pERK/ERK ratio for each experiment was derived from at least 2 individual wells and normalized to the pERK/ERK ratio for vehicle treated NRVMs. FIG. 4D and FIG. 4E. […] Heart lysates were blotted for pERK and ERK. Results were compared using one way ANOVA with Tukey post-test. FIG. 4F.
Dabuzalgron protects neonatal rat ventricular myocytes from cell death due to doxorubicin. […] (FIG. 4C).
Female Sprague-Dawley rats were from Charles River. NRVMs were isolated as previously described.7 Briefly, hearts from 1-2 day old rat pups were minced, digested serially in collagenase (Worthington)-containing solution, filtered, then pre-plated to exclude non-myocyotes. NRVMs were then plated on laminin-coated dishes in DMEM with 5% fetal bovine serum (Sigma F2442) for 24 hours. Experiments were carried out after 36-96 hours of serum starvation in the presence of insulin, transferrin, and BrdU. […]
All results are presented as mean±SEM. […] EC50 for ERK activation was calculated using sigmoidal dose-response analysis (Prism).

Question: Which “increase of pERK/ERK ratio” value does the source give for `NC[C@H](O)c1ccc(O)c(O)c1` [norepinephrine] here?
Answer: roughly 1.5 fold
